Reference: publication PMC7255104, “Receptor Characterization and Functional Activity of Pyrokinins on the Hindgut in the Adult Mosquito, Aedes aegypti” (Frontiers in Physiology, 2020)
Where a SMILES comes first, the peptide text is derived from it.

Legend:
[1] = system: isolated ilea of female A. aegypti; test: Ileal motility assay (video recordings); parameters: species or system Aedes aegypti; details: Figure 7, 1 μM, RhoprMIP-7 added together with 1 μM RhoprPK2b, mean of 17 preparations
Description: Hindgut contraction assays were conducted on isolated […] of female A. aegypti. […] The isolated tissue was secured with minutien pins within a Sylgard-lined petri-dish. Given its high sequence similarity to endogenous A. aegypti PK2 peptides (Supplementary Table S1), we used the R. prolixus PK2b peptide ([Paluzzi and O'Donnell, 2012]), henceforth referred to as RhoprPK2b, for motility bioassays. Commercially synthesized peptides (Genscript, Piscataway, NJ, United States), […] ([…]) and RhoprPK2[…]), were used to examine myomodulatory activity. Serotonin (5-hydroxytryptamine, 5-HT; Sigma-Aldrich, Oakville, ON, Canada), previously shown to stimulate A. aegypti hindgut contractions ([Messer and Brown, 1995]), was used as a stimulatory control. Given the inhibitory properties of myoinhibitory peptides (having the consensus W(X6)W-NH2 carboxyl terminus) on insect hindgut motility ([Lange et al., 2012]), RhoprMIP-7 ([…]; Genscript, Piscataway, NJ, United States; [Paluzzi et al., 2015]) was used as an inhibitory control. […] Unlike the rectum, the mosquito ileum produces weaker contractions that we were unable to measure using an impedance converter as described above. […] The dissected gut was pinned in the midgut and rectum to allow the ileum to freely contract in saline and following treatments. Contractions were recorded for 2 min in saline that was used for baseline activity measurements, followed by three subsequent 2-min recordings, including: […] The RhoprPK2b was added along with the stimulatory or inhibitory compound (5-HT or RhoprMIP-7, respectively), to maintain its 1 μM concentration in the bath. […] To account for any potential changes in tissue contractile activity upon adding solutions to the bath, each of these variables were measured relative to baseline saline recordings of the same preparation as a ratio of change, where a value above or below one indicates an increase or a decrease, (respectively), in the rate, duration or length between each contraction in response to the treatment.

[2] = system: rectal pad epithelia of female A. aegypti; test: Scanning ion-selective electrode technique (SIET), Na+ flux; parameters: species or system Aedes aegypti
Description: Female mosquitoes were anesthetized on ice for 3 min and dissected in Ca^2+-free A. aegypti saline, as described previously ([Paluzzi et al., 2014]), to limit spontaneous hindgut contractions during ion flux measurements. The isolated rectum was then transferred to a Petri dish with saline, pre-coated with poly-L-lysine ([Paluzzi et al., 2014]) to allow the tissue to adhere to the bottom of the dish.
AedaeCAPA-PK1 or D. melanogaster Droso-leucokinin (NSVVLGKKQRFHSWG-NH2, Genscript, Piscataway, NJ, United States; provided by Prof. Dick Nässel, Stockholm University, Sweden) were solubilized in double distilled water as a 1 mM stock and then diluted in the above-mentioned Ca^2+-free A. aegypti saline to achieve a 1 μM final concentration. Control measurements were obtained by applying an equal volume of saline only, referred to as saline control treatments. […]
SIET measurements were obtained through the Automated Scanning Electrode Technique (ASET) software (Science Wares, East Falmouth, MA, United States). […] Voltage gradients were measured as the microelectrode moved perpendicularly to the tissue surface between two points separated by a distance of 100 μm. […] Following background voltage readings, the ion-selective microelectrode tip was positioned at a distance of 2 μm from the rectal pad epithelia. […] Following measurements at the rectal pad sites, background voltage readings were again recorded at a distance of 3 mm away from the tissue.
Calculation of ion flux used in this study has been described previously ([Paluzzi et al., 2014]). […] The change in flux upon treatment application was calculated by subtracting flux values obtained during saline measurements, in which a positive change indicates increased ion absorption, and a negative change represents a decrease in absorption.

A. aegypti PK2-R = biological target: T1, A. aegypti PK2-R (Aedes aegypti, UniProt V9P4J1); test: Heterologous functional receptor assay (aequorin bioluminescence), PK2-R; type: cell-based; details: for EC50: CHO-K1 cells transiently expressing PK2-R and aequorin, luminescence normalized to 50 μM ATP, two biological replicates, 4-8 technical replicates each, read-out: EC50, activation of A. aegypti PK2-R
T1 sequence (V9P4J1 1-638): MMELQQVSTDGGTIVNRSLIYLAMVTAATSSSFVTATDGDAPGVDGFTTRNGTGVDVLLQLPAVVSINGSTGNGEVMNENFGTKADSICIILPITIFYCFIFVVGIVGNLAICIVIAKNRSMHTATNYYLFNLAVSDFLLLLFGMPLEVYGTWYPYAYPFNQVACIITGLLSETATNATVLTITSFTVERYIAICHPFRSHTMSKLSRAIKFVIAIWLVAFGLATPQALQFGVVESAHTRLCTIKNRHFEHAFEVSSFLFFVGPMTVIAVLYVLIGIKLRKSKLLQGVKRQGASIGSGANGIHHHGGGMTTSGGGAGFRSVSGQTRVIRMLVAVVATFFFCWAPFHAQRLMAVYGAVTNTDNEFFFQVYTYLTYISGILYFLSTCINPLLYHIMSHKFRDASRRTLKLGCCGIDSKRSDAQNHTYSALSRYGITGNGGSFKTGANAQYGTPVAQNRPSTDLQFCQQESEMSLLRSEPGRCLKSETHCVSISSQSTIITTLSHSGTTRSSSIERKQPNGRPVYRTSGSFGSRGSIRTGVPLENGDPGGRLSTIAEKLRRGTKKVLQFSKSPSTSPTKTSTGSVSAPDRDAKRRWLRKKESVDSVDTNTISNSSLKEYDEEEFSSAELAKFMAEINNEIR
Description: The complete open reading frame was amplified based on the partial ([Nene et al., 2007]) and complete sequences ([Choi et al., 2013]) reported earlier for the A. aegypti PK1-R (Genbank accession: EAT35008.1) and PK2-R (Genbank accession: KC155994.1). Forward 5′-[…]-3′ (PK1-R) or 5′-[…]-3′ (PK2-R) and reverse 5′-[…]-3′ (PK1-R) or 5′-[…]-3′ (PK2-R) primers were designed over the start and stop codons (underlined), respectively, and used to amplify the complete coding sequence using Q5 High-Fidelity DNA polymerase following manufacturer recommendations (New England Biolabs, Whitby, ON). […] The resulting products were cloned into pGEM-T Easy sequencing vector, and miniprep samples were sequenced to verify base accuracy. The receptor constructs were excised using standard restriction enzyme digestion and subcloned into the mammalian expression vector, pcDNA 3.1^+ (Life Technologies, Burlington, ON, Canada). Transfection quality plasmid DNA was purified from an overnight bacterial culture using the PureLink MidiPrep Kit (Invitrogen, Burlington, ON, Canada) following manufacturer guidelines.
Chinese hamster ovary cells (CHO-K1) described previously ([Paluzzi et al., 2012]; [Gondalia et al., 2016]; [Wahedi and Paluzzi, 2018]) were grown in Dulbecco’s modified eagles medium: nutrient F12 (DMEM:F12) media containing 10% heat-inactivated fetal bovine serum (FBS; Wisent, St. Bruno, QC, Canada), 200 μg/mL geneticin, and antimycotic-antibiotic mixture as described previously ([Wahedi and Paluzzi, 2018]). […] Various concentrations of synthesized PK peptides and other peptides (purity > 90%; Genscript, Piscataway, NJ, United States) were prepared in BSA media and loaded in quadruplicate into white 96-well luminescence plates (Greiner Bio-One, Germany).
Luminescence responses to A. aegypti CAPA-1 (GPTVGLFAFPRV-NH2), CAPA-2 (pQGLVPFPRV-NH2) and CAPA-PK1 (AGNSGANSGMWFGPRL-NH2) peptides, along with the R. prolixus PK2 orthologs, PK2a (NTVNFSPRL-NH2), and PK2b (SPPFAPRL-NH2) were examined. A list of peptides used in this study and sequence comparison to native A. aegypti pyrokinin peptides is found in Supplementary Table S1. Cells prepared for the functional assay were loaded into each well of the plate using an automated injector unit and luminescent response was measured with a Synergy 2 Multi-Mode Microplate Reader (BioTek, Winooski, VT, United States). Negative controls were carried out using BSA media alone whereas 50 μM ATP, which activates endogenously expressed purinoceptors ([Iredale and Hill, 1993]; [Michel et al., 1998]), was used as a positive control. Luminescence responses were normalized to ATP responses and analyzed in GraphPad Prism 7.02 (GraphPad Software, San Diego, CA, United States). EC50 values were determined using dose-response curves from multiple biological replicates.

Q: For AWNSLHGGW-NH2 [RhoprMIP-7], which “duration of each ileal contraction relative to baseline” value [1] is on record?
A: about 1.9 fold

Q: And the “ileal contraction frequency relative to baseline” value [1]?
A: 0.38 fold

Q: And the “relaxation duration (length of time between ileal contractions) relative to baseline” value [1]?
A: 3.9 fold

Q: For “NSVVLGKKQRFHSWG-NH2 [Droso-leucokinin, D. melanogaster kinin analog used in Na+ transport measurements]”, which “decrease in Na+ absorption across rectal pad epithelia relative to initial transport in saline” value ([2]; 1 μM in Ca2+-free saline, absorptive female recta only, mean ± SEM of 10 to 14 preparations, SEM) is on record?
A: 201.6 ± 39.0 pmol cm^–2 s^–1

Q: What about the “fold decrease in Na+ absorption compared to saline control” value ([2]; 1 μM, female rectal pad epithelia) of the same molecule?
A: four-fold decrease

Q: What about the “significance of change in Na+ transport versus saline alone” value ([2]; 1 μM, one-way ANOVA and Tukey's post hoc test) of the same molecule?
A: significant

Q: With `CSCC[C@H](NC(=O)CNC(=O)[C@H](CO)NC(=O)[C@H](CC(N)=O)NC(=O)[C@H](C)NC(=O)CNC(=O)[C@H](CO)NC(=O)[C@H](CC(N)=O)NC(=O)CNC(=O)[C@H](C)N)C(=O)N[C@@H](Cc1c[nH]c2ccccc12)C(=O)N[C@@H](Cc1ccccc1)C(=O)NCC(=O)N1CCC[C@H]1C(=O)N[C@@H](CCCNC(=N)N)C(=O)N[C@@H](CC(C)C)C(N)=O` [AedaeCAPA-PK1] (H-AGNSGANSGMWFGPRL-NH2) as the molecule, how does the EC50 (A. aegypti PK2-R) read?
A: 158 nM

Q: How did the EC50 (A. aegypti PK2-R) turn out when `CC(C)C[C@H](NC(=O)[C@H](CCCNC(=N)N)NC(=O)[C@@H]1CCCN1C(=O)[C@H](C)NC(=O)[C@H](Cc1ccccc1)NC(=O)[C@@H]1CCCN1C(=O)[C@@H]1CCCN1C(=O)[C@@H](N)CO)C(N)=O` [RhoprPK2b] (H-SPPFAPRL-NH2) was run?
A: 8.54 nM

Q: Which EC50 (A. aegypti PK2-R) does the source give for `CC(C)C[C@H](NC(=O)[C@H](CCCNC(=N)N)NC(=O)[C@@H]1CCCN1C(=O)[C@H](CO)NC(=O)[C@H](Cc1ccccc1)NC(=O)[C@H](CC(N)=O)NC(=O)[C@@H](NC(=O)[C@@H](NC(=O)[C@@H](N)CC(N)=O)[C@@H](C)O)C(C)C)C(N)=O` [RhoprPK2a] (H-NTVNFSPRL-NH2) here?
A: 17.5 nM

Q: How did the “activation of PK2-R relative to the highly potent pyrokinins” value (A. aegypti PK2-R; CHO-K1 cells expressing PK2-R, very high concentrations) turn out when `CC(C)C[C@H](NC(=O)CNC(=O)[C@@H](NC(=O)[C@@H](NC(=O)[C@@H]1CCCN1C(=O)CN)[C@@H](C)O)C(C)C)C(=O)N[C@@H](Cc1ccccc1)C(=O)N[C@@H](C)C(=O)N[C@@H](Cc1ccccc1)C(=O)N1CCC[C@H]1C(=O)N[C@@H](CCCNC(=N)N)C(=O)N[C@H](C(N)=O)C(C)C` [AedaeCAPA-1] (H-GPTVGLFAFPRV-NH2) was run?
A: ≤ 25%
